Key:
Format in all cases: in vivo
[1] = system: barnyardgrass (Echinochloa crus-galli); experiment: Test C; design: key: 0 was no effect; 100 was complete control; details: PREEMERGENCE
[2] = system: johnsongrass (Sorghum halepense); experiment: Test C; details: PREEMERGENCE
[3] = system: common groundsel (Senecio vulgaris); experiment: Test E pre-/postemergence/post directed; design: key: 0 is no effect; 100 is complete control; details: PREEMERGENCE
How it was run: (§1)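 Greenhouse pot-grown plants; compound in non-phytotoxic solvent with surfactant applied preemergence to soil within one day of planting, postemergence at two to four leaf stage (three to twenty cm), or post-directed to plant base and soil. Visual injury rated 13 to 21 days after application, 0 (none) to 100 (complete control).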

[4] = system: bermudagrass (Cynodon dactylon); experiment: Test E pre-/postemergence/post directed; design: key: 0 is no effect; 100 is complete control; details: PREEMERGENCE
How it was run: as §1

[5] = system: common ragweed (Ambrosia elatior); experiment: Test E pre-/postemergence/post directed; design: key: 0 is no effect; 100 is complete control; details: PREEMERGENCE
How it was run: as §1

[6] = system: dallisgrass (Paspalum dilatatum); experiment: Test E pre-/postemergence/post directed; design: key: 0 is no effect; 100 is complete control
How it was run: as §1

[7] = system: goosegrass (Eleusine indica); experiment: Test E pre-/postemergence/post directed; design: key: 0 is no effect; 100 is complete control
How it was run: as §1

[8] = system: common purslane (Portulaca oleracea); experiment: Test E pre-/postemergence/post directed; design: key: 0 is no effect; 100 is complete control
How it was run: as §1

[9] = system: guineagrass (Panicum maximum); experiment: Test E pre-/postemergence/post directed; design: key: 0 is no effect; 100 is complete control
How it was run: as §1

[10] = system: tall mallow (Malva sylvestris); experiment: Test E pre-/postemergence/post directed; design: key: 0 is no effect; 100 is complete control; details: PREEMERGENCE
How it was run: as §1

[11] = system: sourgrass (Trichachne insularis); experiment: Test E pre-/postemergence/post directed; design: key: 0 is no effect; 100 is complete control
How it was run: as §1

[12] = system: surinam grass (Brachiaria decumbens); experiment: Test E pre-/postemergence/post directed; design: key: 0 is no effect; 100 is complete control; details: PREEMERGENCE
How it was run: as §1

[13] = system: large crabgrass (Digitaria sanguinalis); experiment: Test E pre-/postemergence/post directed; design: key: 0 is no effect; 100 is complete control; details: PREEMERGENCE
How it was run: as §1

[14] = system: fall panicum (Panicum dichotomiflorum); experiment: Test C; design: key: 0 was no effect; 100 was complete control; details: PREEMERGENCE
[15] = system: ladysthumb smartweed (Polygonum persicaria); experiment: Test C; details: PREEMERGENCE, Rate 70 g/ha
[16] = system: redroot pigweed (Amaranthus retroflexus); experiment: Test C; design: key: 0 was no effect; 100 was complete control; details: PREEMERGENCE
[17] = system: common ragweed (Ambrosia elatior); experiment: Test C; design: key: 0 was no effect; 100 was complete control; details: PREEMERGENCE
[18] = system: velvetleaf (Abutilon theophrasti); experiment: Test C; design: key: 0 was no effect; 100 was complete control; details: PREEMERGENCE

Structure (SMILES): Cc1cnc(-n2ccc(C(F)(F)F)n2)nc1Cc1cccc(C(F)(F)F)c1 [Example 2, 5-methyl-4-[[3-(trifluoromethyl)phenyl]methyl]-2-[3-(trifluoromethyl)-1H-pyrazol-1-yl]pyrimidine]
- Plant response rating, Barnyardgrass ([1]; Rate 35 g/ha): 0
- Plant response rating, Barnyardgrass ([1]; Rate 70 g/ha): 5
- Plant response rating, Barnyardgrass ([1]; Rate 140 g/ha): 30
- Plant response rating, Johnsongrass ([2]; Rate 35 g/ha): 5
- Plant response rating, Johnsongrass ([2]; Rate 70 g/ha): 5
- Plant response rating, Johnsongrass ([2]; Rate 140 g/ha): 60
- Plant response rating, Com. groundsel ([3]; Rate 32 g/ha): 100
- Plant response rating, Com. groundsel ([3]; Rate 64 g/ha): 100
- Plant response rating, Com. groundsel ([3]; Rate 125 g/ha): 100
- Plant response rating, Com. groundsel ([3]; Rate 250 g/ha): 100
- Plant response rating, Com. groundsel ([3]; Rate 500 g/ha): 100
- Plant response rating, Bermudagrass ([4]; Rate 64 g/ha): 100
- Plant response rating, Bermudagrass ([4]; Rate 125 g/ha): 100
- Plant response rating, Bermudagrass ([4]; Rate 250 g/ha): 100
- Plant response rating, Bermudagrass ([4]; Rate 500 g/ha): 100
- Plant response rating, Com. ragweed ([5]; Rate 32 g/ha): 100
- Plant response rating, Com. ragweed ([5]; Rate 64 g/ha): 100
- Plant response rating, Com. ragweed ([5]; Rate 125 g/ha): 100
- Plant response rating, Com. ragweed ([5]; Rate 250 g/ha): 100
- Plant response rating, Com. ragweed ([5]; Rate 500 g/ha): 100
- Plant response rating, Dallisgrass ([6]; POSTEMERGENCE, Rate 32 g/ha): 10
- Plant response rating, Dallisgrass ([6]; POSTEMERGENCE, Rate 64 g/ha): 40
- Plant response rating, Dallisgrass ([6]; POSTEMERGENCE, Rate 125 g/ha): 70
- Plant response rating, Dallisgrass ([6]; POSTEMERGENCE, Rate 250 g/ha): 90
- Plant response rating, Dallisgrass ([6]; POSTEMERGENCE, Rate 500 g/ha): 95
- Plant response rating, Dallisgrass ([6]; PREEMERGENCE, Rate 32 g/ha): 90
- Plant response rating, Dallisgrass ([6]; PREEMERGENCE, Rate 64 g/ha): 100
- Plant response rating, Dallisgrass ([6]; PREEMERGENCE, Rate 125 g/ha): 100
- Plant response rating, Dallisgrass ([6]; PREEMERGENCE, Rate 250 g/ha): 100
- Plant response rating, Dallisgrass ([6]; PREEMERGENCE, Rate 500 g/ha): 100
- Plant response rating, Goosegrass ([7]; POSTEMERGENCE, Rate 32 g/ha): 60
- Plant response rating, Goosegrass ([7]; POSTEMERGENCE, Rate 64 g/ha): 75
- Plant response rating, Goosegrass ([7]; POSTEMERGENCE, Rate 250 g/ha): 90
- Plant response rating, Goosegrass ([7]; POSTEMERGENCE, Rate 500 g/ha): 95
- Plant response rating, Goosegrass ([7]; PREEMERGENCE, Rate 32 g/ha): 95
- Plant response rating, Goosegrass ([7]; PREEMERGENCE, Rate 64 g/ha): 100
- Plant response rating, Goosegrass ([7]; PREEMERGENCE, Rate 125 g/ha): 100
- Plant response rating, Goosegrass ([7]; PREEMERGENCE, Rate 250 g/ha): 100
- Plant response rating, Goosegrass ([7]; PREEMERGENCE, Rate 500 g/ha): 100
- Plant response rating, Com. purslane ([8]; POSTEMERGENCE, Rate 32 g/ha): 65
- Plant response rating, Com. purslane ([8]; POSTEMERGENCE, Rate 64 g/ha): 65
- Plant response rating, Com. purslane ([8]; POSTEMERGENCE, Rate 125 g/ha): 65
- Plant response rating, Com. purslane ([8]; POSTEMERGENCE, Rate 250 g/ha): 70
- Plant response rating, Com. purslane ([8]; POSTEMERGENCE, Rate 500 g/ha): 70
- Plant response rating, Com. purslane ([8]; PREEMERGENCE, Rate 32 g/ha): 100
- Plant response rating, Com. purslane ([8]; PREEMERGENCE, Rate 64 g/ha): 100
- Plant response rating, Com. purslane ([8]; PREEMERGENCE, Rate 125 g/ha): 100
- Plant response rating, Com. purslane ([8]; PREEMERGENCE, Rate 250 g/ha): 100
- Plant response rating, Com. purslane ([8]; PREEMERGENCE, Rate 500 g/ha): 100
- Plant response rating, Guineagrass ([9]; POSTEMERGENCE, Rate 32 g/ha): 5
- Plant response rating, Guineagrass ([9]; POSTEMERGENCE, Rate 125 g/ha): 50
- Plant response rating, Guineagrass ([9]; POSTEMERGENCE, Rate 250 g/ha): 50
- Plant response rating, Guineagrass ([9]; POSTEMERGENCE, Rate 500 g/ha): 90
- Plant response rating, Guineagrass ([9]; PREEMERGENCE, Rate 32 g/ha): 50
- Plant response rating, Guineagrass ([9]; PREEMERGENCE, Rate 64 g/ha): 50
- Plant response rating, Guineagrass ([9]; PREEMERGENCE, Rate 125 g/ha): 100
- Plant response rating, Guineagrass ([9]; PREEMERGENCE, Rate 250 g/ha): 100
- Plant response rating, Tall Mallow ([10]; Rate 32 g/ha): 98
- Plant response rating, Tall Mallow ([10]; Rate 64 g/ha): 100
- Plant response rating, Tall Mallow ([10]; Rate 125 g/ha): 100
- Plant response rating, Tall Mallow ([10]; Rate 250 g/ha): 100
- Plant response rating, Tall Mallow ([10]; Rate 500 g/ha): 100
- Plant response rating, Sourgrass ([11]; POSTEMERGENCE, Rate 32 g/ha): 10
- Plant response rating, Sourgrass ([11]; POSTEMERGENCE, Rate 64 g/ha): 20
- Plant response rating, Sourgrass ([11]; POSTEMERGENCE, Rate 125 g/ha): 20
- Plant response rating, Sourgrass ([11]; POSTEMERGENCE, Rate 250 g/ha): 40
- Plant response rating, Sourgrass ([11]; POSTEMERGENCE, Rate 500 g/ha): 80
- Plant response rating, Sourgrass ([11]; PREEMERGENCE, Rate 32 g/ha): 100
- Plant response rating, Sourgrass ([11]; PREEMERGENCE, Rate 64 g/ha): 100
- Plant response rating, Sourgrass ([11]; PREEMERGENCE, Rate 125 g/ha): 100
- Plant response rating, Sourgrass ([11]; PREEMERGENCE, Rate 250 g/ha): 100
- Plant response rating, Sourgrass ([11]; PREEMERGENCE, Rate 500 g/ha): 100
- Plant response rating, Surinam grass ([12]; Rate 125 g/ha): 100
- Plant response rating, Surinam grass ([12]; Rate 250 g/ha): 100
- Plant response rating, Surinam grass ([12]; Rate 500 g/ha): 100
- Plant response rating, Large crabgrass ([13]; Rate 64 g/ha): 100
- Plant response rating, Large crabgrass ([13]; Rate 125 g/ha): 100
- Plant response rating, Large crabgrass ([13]; Rate 250 g/ha): 100
- Plant response rating, Large crabgrass ([13]; Rate 500 g/ha): 100
- Plant response rating, Fall panicum ([14]; Rate 35 g/ha): 0
- Plant response rating, Fall panicum ([14]; Rate 70 g/ha): 5
- Plant response rating, Fall panicum ([14]; Rate 140 g/ha): 100
- Plant response rating, Ladysthumb [15]: 30
- Plant response rating, Redroot pigweed ([16]; Rate 35 g/ha): 5
- Plant response rating, Redroot pigweed ([16]; Rate 70 g/ha): 5
- Plant response rating, Redroot pigweed ([16]; Rate 140 g/ha): 100
- Plant response rating, Common ragweed ([17]; Rate 35 g/ha): 0
- Plant response rating, Common ragweed ([17]; Rate 70 g/ha): 0
- Plant response rating, Common ragweed ([17]; Rate 140 g/ha): 50
- Plant response rating, Velvetleaf ([18]; Rate 35 g/ha): 0
- Plant response rating, Velvetleaf ([18]; Rate 70 g/ha): 5
- Plant response rating, Velvetleaf ([18]; Rate 140 g/ha): 50

Source: US6525001B1, “Substituted pyrimidine and pyridine herbicides” (Mid-American Commercialization Corporation, priority 1997, dated 2003)
